Data: patent publication US20150018305A1, “SIRTUIN INDUCER, TISSUE REPAIRING AGENT, HEPATOCYTE GROWTH FACTOR INDUCER, TISSUE HOMEOSTASIS MAINTENANCE AGENT, AND TLR4 AGONIST, HAVING HYALURONIC ACID FRAGMENT AS ACTIVE INGREDIENT” (HYALURONAN RESEARCH INSTITUTE, INC., priority 2012, published 2015)

Tests used:
[1] = tested on: sirtuin enzymatic activity (sirt1 enzymatic activity); test: Sirtuin enzymatic activity in cell solution of human epidermal keratinocytes, CycLex SIRT1/Sir2 Deacetylase Fluorometric Assay Kit (Test Example 2); format: cell-based; conditions: 10 ng/ml final concentration; cell crude extract
Description: Human epidermal keratinocytes were treated in the same manner as in Test Example 1, except that the final concentration of the hyaluronic acid fragment was 10 ng/ml, the size thereof being four sugar units (4mer), six sugar units (6mer), or 10 sugar units (10mer), while measuring the sirtuin enzymatic activity (sirt1 enzymatic activity) in the cell solution thereof. For purposes of comparison, 10 kDa or 900 kDa hyaluronic acid, and resveratrol, a known sirtuin activator, were likewise tested at 10 ng/ml final concentration. A human sirtuin recombinant protein (recombinant human sirt1) produced through genetic recombination techniques was used as a substance for verification of the measurement system. Sirtuin enzymatic activity in the cell crude extract was measured with the CycLex SIRT1/Sir2 Deacetylase Fluorometric Assay Kit (trade name of CycLex), following the protocol of the kit.

[2] = tested on: human large intestine epithelial cells (HT29 cells); test: Hydrogen peroxide induced aging of human large intestine epithelial cells, MTS assay (Test Examples 16-18); format: cell-based; conditions: for suppression of cellular aging (MTS value, OD 490 nm): hydrogen peroxide 10 μM 15 min
Description: Human large intestine epithelial cells (HT29 cells) were experienced cellular aging (decline in mitochondrial activity due to injury, or a drop in the MTS value once cell death occurs) due to stimulation by the hydrogen peroxide when treated with hydrogen peroxide, and it was investigated whether this process is affected by treatment with the hyaluronic acid fragment. Specifically, the following test was performed.
Using a DMEM culture medium (made by Wako Pure Chemical Industries, Ltd.), human large intestine epithelial cells (HT29 cells) were cultured by usual methods at 37° C. under 5% CO2. Hydrogen peroxide was added to the culture medium to a final concentration of 10 μM to bring about stimulation for a 15-minute period, and the culture broth was then transferred to DMEM culture medium containing no hyaluronic acid fragments; to DMEM culture medium containing hyaluronic acid fragment (4mer) in a final concentration of 100 ng/ml; or to DMEM culture medium containing the hyaluronic acid fragment (4mer) plus TLR4/MD2 in a final concentration of 10 μg/ml, and cultured for 3 hours.
After 3 hours had passed, an MTS assay was performed. On the basis of the action, in which MTS is converted to formazan by dehydrogenation in the mitochondria of the cell, OD 490 nm was measured to measure mitochondrial function.
Using hyaluronic acid fragment (4mer), hyaluronic acid fragment (L4mer) and hyaluronic acid fragment (L3mer) as test substances, tests similar to those of Test Example 16 were performed, except that the culture time following transfer to the culture medium containing the test substance was one hour.
Tests similar to those of Test Example 16 were performed, except for using hyaluronic acid fragment (L4mer), and hyaluronic acid fragment (L3mer) as test substances.

With `Oc1ccc(C=Cc2cc(O)cc(O)c2)cc1` [resveratrol, reference compound] the “sirtuin enzymatic activity (sirt1 enzymatic activity) compared with negative control” value [1] was “No change was observed”.
`CC(=O)NC1C(O[C@@H]2OC(C(=O)O)[C@@H](O[C@@H]3OC(CO)[C@@H](O)C(O[C@@H]4OC(C(=O)O)[C@@H](O)C(O)C4O)C3NC(C)=O)C(O)C2O)[C@H](O)C(CO)O[C@H]1OCCCN=[N+]=[N-]` (stereo partly shown) [L4mer] was tested, and the “suppression of cellular aging (MTS value, OD 490 nm)” value ([2]; then 100 ng/ml for 3 hours) was “showed effect in suppressing cellular aging”, the “suppression of cellular aging (MTS value, OD 490 nm)” value ([2]; then test substance for one hour) was “showed effect in suppressing cellular aging” and the “suppression of cellular aging with TLR4/MD2 added (MTS)” value ([2]; hydrogen peroxide 10 μM, 100 ng/ml plus TLR4/MD2 10 μg/ml, 3 hours) was “inhibited by the addition of TLR4/MD2”.
